These are literature values, as cited in patent publication US6184255A, “Pharmaceutical composition comprising coenzyme Q10” (Kaneka Corporation, priority 1996, dated 2001).

For this data set the following is noted: oral, considerably greater amount than actually needed.

Regarding `COC1=C(OC)C(=O)C(C/C=C(\C)CC/C=C(\C)CC/C=C(\C)CC/C=C(\C)CC/C=C(\C)CC/C=C(\C)CC/C=C(\C)CC/C=C(\C)CC/C=C(\C)CCC=C(C)C)=C(C)C1=O` [Coenzyme Q10], the adverse gastrointestinal reactions result is “adverse gastrointestinal reactions such as epigastric discomfort, anorexia, nausea, and diarrheas”.
